Measured values published in patent US20160038485A1, “PHASE 2 INDUCERS AND RELATED SIGNALING PATHWAYS PROTECT CARTILAGE AGAINST INFLAMMATION, APOPTOSIS AND STRESS” (THE JOHNS HOPKINS UNIVERSITY, priority 2006, published 2016).

Assays:
Format in all cases: cell-based, human
[1] = test system: NQO1; test: NQO1 enzyme activity in shear-activated chondrocytes; details: T/C28a2, high shear (20 dyn/cm^2); SFN 1.25 μM, D3T 5 μM, CAY10404 6.75 μM, NS398 30 μM
Procedure: (§1) Cell Culture and Shear Stress Exposure: Human T/C28a2 chondrocytic cells were grown (37° C., 5% CO2) in 1:1 Ham's F-12/DMEM (Biowhittaker) supplemented with 10% FBS. Prior to shear exposure, T/C28a2 cells were incubated for 24 hours in serum-free medium containing 1% Nutridoma-SP (Roche), a low-protein serum replacement that maintains chondrocyte phenotype. Primary HUVECs were cultured as described (Goldring, M. B., 2004). T/C28a2 cells were exposed to shear stress in media containing 1% Nutridoma by use of a parallel-plate flow chamber with a recirculating flow loop (37° C., 5% CO2) (10). HUVECs were treated similarly by circulating media supplemented with 10% FBS.
(§2) Cell Viability, NQO1 activity, Glutathione levels, and Prostaglandin (PG)E2 production: Cell viability was monitored with the MTT assay (Gao, X. et al. 2001). NQO1 activity and total GSH (oxidized and reduced) levels of cell lysates were determined in 96-well microtiter plates. PGE2 levels were determined in media by the Prostaglandin E2 monoclonal EIA kit (Cayman Chemical).

[2] = test system: T/C28a2 chondrocytic cells; test: DNA microarray analysis of shear-induced mRNA response of chondrocytes; parameters: COX-1 (cyclooxygenase-1) microarray intensity ratio (shear/static): dose or concentration left out as unconfirmed; details: 20 dyn/cm2, 48 hr, mean ± SD
Procedure: as §1
Microarray Hybridization and Analysis: Cy-3- and Cy-5-labeled probes were mixed, dried, resuspended in hybridization buffer (50% formamide, 10×SSC, 0.2% SDS, COT-I DNA, Poly(A)-DNA), and denatured. The probes were added to microarray slides printed with a set of 32,448 or 39,936 expressed sequence tags (ESTs), allowed to hybridize at 42° C. overnight, and processed as described (Abulencia, J. P., et al. 2003. Hegde, P. et al. 2000). Expression ratios were derived using TIGR Spotfinder (Abulencia, J. P. et al. 2003, Hegde, P. et al. 2000). Differentially expressed genes were identified by Significance Analysis of Microarrays, and analyzed with the software TMEV (Abulencia, J. P. et al. 2003).
Quantitative Real-Time PCR (qRT-PCR) was used to verify DNA microarray data. Incorporation of SYBR Green into PCR products was monitored with the 7900HT detection system.

[3] = test system: COX-2; test: Intracellular COX-2 protein staining, flow cytometry; details: D3T 5 μM; 20 dyn/cm^2, 48 hours
Procedure: as §1
(§3) Intracellular Protein Staining and Western Blots: T/C28a2 cells were fixed in 1.0% formaldehyde for 10 min at 37° C., permeabilized in 90% methanol for 20 minutes on ice, and incubated at 25° C. for 10 min in blocking buffer (0.5% BSA). Specimens were then incubated with fluorophore-conjugated monoclonal antibodies specific for COX-I (COX-1/FITC) and COX-2 (COX-2/PE) (Cayman Chemical) or isotype controls (BD Biosciences) for 30 min, washed 2× in blocking buffer, and analyzed by flow cytometry. For Western blots, total cell lysates were subjected to SDS/PAGE, transferred to a membrane, and probed with caspase-9 and β-actin antibodies (Upstate).

[4] = test system: ARE-driven NQO1 promoter; test: Promoter activity assay (pNQO1/ARE-luc); details: transfected T/C28a2 cells; SFN 1.25 μM or D3T 5 μM, 24 h, static conditions
Procedure: Transient Transfection and Plasmid Constructs: T/C28a2 cells were transfected with 10 μg of plasmid and 2 μg of control with Lipofectamine and Plus Reagent (Invitrogen). Cells were allowed to recover for 3 hours, incubated overnight in medium containing 1% Nutridoma, and exposed to the indicated treatments. Efficiency was assessed by flow cytometry with pEGFP-N2 (BD Biosciences). pCMV-mNrf2 and pNQO1/ARE-luc constructs were provided by N. Wakabayashi (Wakabayashi, N. et al. 2004). Igarashi, K., et al. 1994), and pBJ M-pl 10*-myc, pBJ M<<pl 10-UR, and pCG pi 10 wt constructs were provided by A. Kippel (Hu, Q., et al. 1995).
Promoter Activity Assay: T/C28a2 cells were transfected with 10 μg of pNQO1/ARE-luc and 1 μg each of pEGFP-N2 and pSV40-hRL2 (Promega) to normalize transfection efficiency. Firefly and Renilla luciferase activities were measured using the Dual-Luciferase Report Assay kit (Promega).

[5] = test system: COX-I; test: Intracellular COX-1 protein staining, flow cytometry; details: D3T 5 μM; static or laminar shear 5 or 20 dyn/cm^2, 48 hours
Procedure: as §1, §3

[6] = test system: T/C28a2 cells; test: Shear-induced apoptosis: DNA fragmentation (TUNEL) and mitochondrial membrane depolarization; details: 20 dyn/cm^2, 48 h; D3T 5 μM, CAY10404 6.75 μM, NS398 30 μM
Procedure: as §1
DNA Fragmentation and Mitochondrial Depolarization: For DNA fragmentation, cells were fixed in 4% paraformaldehyde for 1 hour at 25° C., washed 2× in PBS, and permeabilized briefly in 0.1% Triton-X100/0.1% sodium citrate on ice. Subsequently, cells were washed 2× in PBS, labeled using the In Situ Cell Death Kit (Roche), and analyzed by flow cytometry. To quantify Mitochondrial Membrane Potential (MMP), cells were labeled using the MitoProbe JC-I Kit (Molecular Probes).

[7] = test system: T/C28a2 cells; test: Shear-induced PGE2 production (EIA of culture media); details: D3T 5 μM; fluid shear 48 hours
Procedure: as §1, §2

[8] = test system: caspase-9; test: Caspase-9 immunoblot analysis; details: high shear 20 dyn/cm^2
Procedure: as §1, §3

[9] = 5 μM D3T (shear) vs 0.1% DMSO (static)

S=c1ccss1 [D3T, 1,2-dithiole-3-thione]
shear-induced suppression of NQO1 activity [1]: likewise effective in suppressing the shear-mediated reduction of phase 2 enzyme activity
COX-2 (cyclooxygenase-2) microarray intensity ratio (shear/static) [2, 9]: 1.3 ± 0.2
Caspase-9 precursor microarray intensity ratio (shear/static) [2, 9]: 0.8 ± 0.1
GCLR (γ-glutamylcysteine ligase) microarray intensity ratio (shear/static) [2, 9]: 1.6 ± 0.1
GST μ1 (glutathione S-transferase) microarray intensity ratio (shear/static) [2, 9]: 1.6 ± 0.1
Glutathione reductase microarray intensity ratio (shear/static) [2, 9]: 2.8 ± 0.1
HO-1 (Heme Oxygenase-1) microarray intensity ratio (shear/static) [2, 9]: 1.2 ± 0.1
HO-2 (Heme Oxygenase-2) microarray intensity ratio (shear/static) [2, 9]: 0.9 ± 0.1
JNK2 (c-jun N-terminal kinase 2) microarray intensity ratio (shear/static) [2, 9]: 1.6 ± 0.1
NQO1 (NAD(P)H:quinone reductase-1) microarray intensity ratio (shear/static) [2, 9]: 1.3 ± 0.1
Nrf2 (NF-E2 related factor 2) microarray intensity ratio (shear/static) [2, 9]: 1.3 ± 0.1
PI3K (phosphoinositol kinase 3) microarray intensity ratio (shear/static) [2, 9]: 0.8 ± 0.2
Transcription Factor AP-1 (c-jun) microarray intensity ratio (shear/static) [2, 9]: 1.4 ± 0.1
UDP-glucuronosyltransferase microarray intensity ratio (shear/static) [2, 9]: 1.0 ± 0.1
COX-1 (cyclooxygenase-1) microarray intensity ratio (shear/static) [2]: 1.3 ± 0.1
COX-2 protein expression in chondrocytes subjected to high shear [3]: nearly abrogated
ARE-driven NQO1 promoter luciferase activity [4]: increases the luciferase activity
COX-I expression [5]: remains unchanged
shear-induced apoptosis (DNA fragmentation TUNEL, mitochondrial membrane depolarization MMP) [6]: essentially abrogated
PGE2 production in chondrocytes subjected to high shear [7]: nearly abrogated
expression of proform (46 kDa) and active form (34 kDa) of caspase-9 [8]: substantially reduced expression
